This experiment deals with primary rat mixed cortical cells. The experiment in a line: In vitro myelination assay (MBP positive myelin strands, fold myelin pixels above background). The class given is cell-based. The conditions noted are these: Rattus norvegicus, read-out: Fold myelin pixels above background relative to baseline of no added compound; for fold induction at 1 µM: 1.0 μM compound; for fold induction at 10 µM: 10.0 μM compound. In outline:
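Mixed cortical culture, P1 rat, 87,500-95,000 cells/well; compound present from seeding, refreshed days 6 and 10; 14 d, 37 °C, 5% CO2. Day 14: PFA fix, anti-MBP + Hoechst. Read-out: fold MBP myelin pixels over untreated, tested at 1.0 and 10.0 μM.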

`Cc1cc(Nc2ncn(-c3cc(F)cc(F)c3)n2)cc(NC2CCN(CC3CCOC3)CC2)c1` (stereo not drawn) [Compound 1045, N3-[1-(3,5-difluorophenyl)-1,2,4-triazol-3-yl]-5-methyl-N1-[1-(tetrahydrofuran-3-ylmethyl)-4-piperidyl]benzene-1,3-diamine]: the fold induction at 1 µM fell in the range of 1 to 10 and the fold induction at 10 µM is ≤ 1.

For `Cc1cc(NCC2CCN(C3CCOCC3)CC2)cc(Nc2ncn(-c3cc(F)cc(F)c3)n2)c1` [Compound 1046, N1-[1-(3,5-difluorophenyl)-1,2,4-triazol-3-yl]-5-methyl-N3-[(1-tetrahydropyran-4-yl-4-piperidyl)methyl]benzene-1,3-diamine], the fold induction at 1 µM lay in the range of 1 to 10 and the fold induction at 10 µM was ≤ 1.

As to `Cc1cc(Nc2ncn(-c3cc(F)cc(F)c3)n2)cc(N2CCN(CC3CCCN(C)C3)CC2)c1` (stereo not drawn) [Compound 1047, 1-(3,5-difluorophenyl)-N-[3-methyl-5-[4-[(1-methyl-3-piperidyl)methyl]piperazin-1-yl]phenyl]-1,2,4-triazol-3-amine], the fold induction at 1 µM was in the range of 1 to 10 and the fold induction at 10 µM is ≤ 1.

As to `Cc1cc(Nc2ncn(-c3cc(F)cc(F)c3)n2)cc(NC2CCOC3(CCOC3)C2)c1` (stereo not drawn) [Compound 1048, N3-[1-(3,5-difluorophenyl)-1,2,4-triazol-3-yl]-N1-(2,6-dioxaspiro[4.5]decan-9-yl)-5-methyl-benzene-1,3-diamine], the fold induction at 1 µM is 10 to 100 and the fold induction at 10 µM is ≤ 1.

On to `Cc1cc(Nc2ncn(-c3ccccc3)n2)cc(Nc2ncc(C)o2)c1` [Compound 1049, 5-methyl-N1-(5-methyloxazol-2-yl)-N3-(1-phenyl-1,2,4-triazol-3-yl)benzene-1,3-diamine], for which the fold induction at 1 µM was in the range of 1 to 10 and the fold induction at 10 µM fell in the range of 10 to 100.

Consider `COCCN1CCCC(Nc2cc(C)cc(Nc3ncn(-c4cc(F)cc(F)c4)n3)c2)C1` (stereo not drawn) [Compound 1050, N3-[1-(3,5-difluorophenyl)-1,2,4-triazol-3-yl]-N1-[1-(2-methoxyethyl)-3-piperidyl]-5-methyl-benzene-1,3-diamine], for which the fold induction at 1 µM lay in the range of 10 to 100 and the fold induction at 10 µM was ≤ 1.

In the case of `Cc1cc(Nc2ncn(-c3cc(F)cc(F)c3)n2)cc(N2CCCC2CS(C)(=O)=O)c1` (stereo not drawn) [Compound 1051, 1-(3,5-difluorophenyl)-N-[3-methyl-5-[2-(methylsulfonylmethyl)pyrrolidin-1-yl]phenyl]-1,2,4-triazol-3-amine], the fold induction at 1 µM lay within 10 to 100 and the fold induction at 10 µM is 1 to 10.

With `Cc1cc(Nc2ncn(-c3cc(F)cc(F)c3)n2)cc(N2CCC(N3CCCC(O)C3)CC2)c1` (stereo not drawn) [Compound 1054, 1-[1-[3-[[1-(3,5-difluorophenyl)-1,2,4-triazol-3-yl]amino]-5-methyl-phenyl]-4-piperidyl]piperidin-3-ol], the fold induction at 1 µM was ≤ 1 and the fold induction at 10 µM is ≤ 1.

Consider `CCC1CN(c2cc(C)cc(Nc3ncn(-c4cc(F)cc(F)c4)n3)c2)CCN1CC(C)O` (stereo not drawn) [Compound 1056, 1-[4-[3-[[1-(3,5-difluorophenyl)-1,2,4-triazol-3-yl]amino]-5-methyl-phenyl]-2-ethyl-piperazin-1-yl]propan-2-ol], for which the fold induction at 1 µM was 1 to 10 and the fold induction at 10 µM was ≤ 1.

For `Cc1cc(Nc2ncn(-c3cc(F)cc(F)c3)n2)cc(N2CCC3OCC3C2)c1` (stereo not drawn) [Compound 1057, 1-(3,5-difluorophenyl)-N-[3-methyl-5-(8-oxa-4-azabicyclo[4.2.0]octan-4-yl)phenyl]-1,2,4-triazol-3-amine], the fold induction at 1 µM lay in the range of 1 to 10 and the fold induction at 10 µM is ≤ 1.

As to `Cc1cc(NC(=O)C2CC2)cc(Nc2ncn(-c3ccccc3)n2)c1` [Compound 1058, N-[3-methyl-5-[(1-phenyl-1,2,4-triazol-3-yl)amino]phenyl]cyclopropanecarboxamide], the fold induction at 1 µM fell in the range of 10 to 100 and the fold induction at 10 µM was 10 to 100.

On to `Cc1cc(Nc2ncn(-c3cc(F)cc(F)c3)n2)cc(NC(C)C2CC2)c1` (stereo not drawn) [Compound 1059, N1-(1-cyclopropylethyl)-N3-[1-(3,5-difluorophenyl)-1,2,4-triazol-3-yl]-5-methyl-benzene-1,3-diamine], for which the fold induction at 1 µM lay in the range of 10 to 100 and the fold induction at 10 µM was ≤ 1.

For `Cc1cc(Nc2ncn(-c3cc(F)cc(F)c3)n2)cc(N2CCC(N3CCCC3)C2)c1` (stereo not drawn) [Compound 1060, 1-(3,5-difluorophenyl)-N-[3-methyl-5-(3-pyrrolidin-1-ylpyrrolidin-1-yl)phenyl]-1,2,4-triazol-3-amine], the fold induction at 1 µM was in the range of 1 to 10 and the fold induction at 10 µM was ≤ 1.

As for `Cc1cc(NCC2COCCN2C)cc(Nc2ncn(-c3cc(F)cc(F)c3)n2)c1` (stereo not drawn) [Compound 1062, N1-[1-(3,5-difluorophenyl)-1,2,4-triazol-3-yl]-5-methyl-N3-[(4-methylmorpholin-3-yl)methyl]benzene-1,3-diamine], the fold induction at 1 µM fell in the range of 10 to 100 and the fold induction at 10 µM was ≤ 1.

Consider `CCOCCN1CCN(c2cc(C)cc(Nc3ncn(-c4cc(F)cc(F)c4)n3)c2)CC1C` (stereo not drawn) [Compound 1063, 1-(3,5-difluorophenyl)-N-[3-[4-(2-ethoxyethyl)-3-methyl-piperazin-1-yl]-5-methyl-phenyl]-1,2,4-triazol-3-amine], for which the fold induction at 1 µM lay in the range of 10 to 100 and the fold induction at 10 µM was ≤ 1.

On to `Cc1cc(Nc2ncn(-c3cc(F)cc(F)c3)n2)cc(NC2CCN(C3CCOC3)CC2)c1` (stereo not drawn) [Compound 1064, N3-[1-(3,5-difluorophenyl)-1,2,4-triazol-3-yl]-5-methyl-N1-(1-tetrahydrofuran-3-yl-4-piperidyl)benzene-1,3-diamine], for which the fold induction at 1 µM fell in the range of 10 to 100 and the fold induction at 10 µM was ≤ 1.

For the compound `COC1CCCC1Nc1cc(C)cc(Nc2ncn(-c3cc(F)cc(F)c3)n2)c1` (stereo not drawn) [Compound 1065, N3-[1-(3,5-difluorophenyl)-1,2,4-triazol-3-yl]-N1-(2-methoxycyclopentyl)-5-methyl-benzene-1,3-diamine], the fold induction at 1 µM fell in the range of 10 to 100 and the fold induction at 10 µM is 1 to 10.

Take `[2H]C1([2H])OC([2H])([2H])C([2H])([2H])N(c2cc(C)cc(Nc3ncn(-c4ccc(F)c(F)c4)n3)c2)C1([2H])[2H]` [Compound 1066, 1-(3,4-difluorophenyl)-N-[3-methyl-5-(2,2,3,3,5,5,6,6-octadeuteriomorpholin-4-yl)phenyl]-1,2,4-triazol-3-amine]: the fold induction at 1 µM is 10 to 100 and the fold induction at 10 µM was ≤ 1.

As for `COCCN1CCN(c2cc(C)cc(Nc3ncn(-c4cc(F)cc(F)c4)n3)c2)CC1=O` [Compound 1067, 4-[3-[[1-(3,5-difluorophenyl)-1,2,4-triazol-3-yl]amino]-5-methyl-phenyl]-1-(2-methoxyethyl)piperazin-2-one], the fold induction at 1 µM is 1 to 10 and the fold induction at 10 µM was ≤ 1.

For the compound `COC1CCN(C2CCN(c3cc(C)cc(Nc4ncn(-c5cc(F)cc(F)c5)n4)c3)CC2)CC1` [Compound 1068, 1-(3,5-difluorophenyl)-N-[3-[4-(4-methoxy-1-piperidyl)-1-piperidyl]-5-methyl-phenyl]-1,2,4-triazol-3-amine], the fold induction at 1 µM fell in the range of 10 to 100 and the fold induction at 10 µM was 10 to 100.

For `Cc1cc(Nc2ncn(-c3cc(F)cc(F)c3)n2)nc(OCC2COC2)c1` [Compound 1069, N-[1-(3,5-difluorophenyl)-1,2,4-triazol-3-yl]-4-methyl-6-(oxetan-3-ylmethoxy)pyridin-2-amine], the fold induction at 1 µM was 1 to 10 and the fold induction at 10 µM is 1 to 10.

In the case of `Cc1cc(Nc2ncn(-c3cc(F)cc(F)c3)n2)cc(NC2CCN(C3CCC3)CC2)c1` [Compound 1070, N1-(1-cyclobutyl-4-piperidyl)-N3-[1-(3,5-difluorophenyl)-1,2,4-triazol-3-yl]-5-methyl-benzene-1,3-diamine], the fold induction at 1 µM was 10 to 100 and the fold induction at 10 µM is ≤ 1.

As for `Cc1cc(Nc2ncn(-c3cccc(F)c3)n2)cc(N2CC3(C2)CN(C(C)C)C3)c1` [Compound 1071, 1-(3-fluorophenyl)-N-[3-(2-isopropyl-2,6-diazaspiro[3.3]heptan-6-yl)-5-methyl-phenyl]-1,2,4-triazol-3-amine], the fold induction at 1 µM fell in the range of 10 to 100 and the fold induction at 10 µM is ≤ 1.

In the case of `Cc1cc(Nc2ncn(-c3cc(F)cc(F)c3)n2)c(F)c(N2CC3(C2)CN(C(C)C)C3)c1` [Compound 1072, 1-(3,5-difluorophenyl)-N-[2-fluoro-3-(2-isopropyl-2,6-diazaspiro[3.3]heptan-6-yl)-5-methyl-phenyl]-1,2,4-triazol-3-amine], the fold induction at 1 µM was 1 to 10 and the fold induction at 10 µM was ≤ 1.

Consider `Cc1cc(Nc2ncn(-c3cc(F)cc(F)c3)n2)cc(N2CCOC(CO)C2)c1` (stereo not drawn) [Compound 1073, [4-[3-[[1-(3,5-difluorophenyl)-1,2,4-triazol-3-yl]amino]-5-methyl-phenyl]morpholin-2-yl]methanol], for which the fold induction at 1 µM is 10 to 100 and the fold induction at 10 µM was ≤ 1.

For the compound `Cc1cc(Nc2ncn(-c3cc(F)cc(F)c3)n2)cc(N2CCC(OCCN3CCCC3)CC2)c1` [Compound 1074, 1-(3,5-difluorophenyl)-N-[3-methyl-5-[4-(2-pyrrolidin-1-ylethoxy)-1-piperidyl]phenyl]-1,2,4-triazol-3-amine], the fold induction at 1 µM lay within 1 to 10 and the fold induction at 10 µM is ≤ 1.

On to `COCC(=O)N1CC(C)(Nc2cc(C)cc(Nc3ncn(-c4cc(F)cc(F)c4)n3)c2)C1` [Compound 1075, 1-[3-[3-[[1-(3,5-difluorophenyl)-1,2,4-triazol-3-yl]amino]-5-methyl-anilino]-3-methyl-azetidin-1-yl]-2-methoxy-ethanone], for which the fold induction at 1 µM is 1 to 10 and the fold induction at 10 µM was ≤ 1.

The values are drawn from patent US10766869B2, “Triazoles for the treatment of demyelinating dieases” (Vertex Pharmaceuticals Incorporated, priority 2015, dated 2020).
